# Source: US20260365670A1, “EGFR INHIBITORS AND USES THEREOF” (DIZAL (JIANGSU) PHARMACEUTICAL CO., LTD., priority 2022, published 2026)
# pIC50: −log10 of the molar value. Where two headings read alike, the source gives them in different places.
# Experiments:
# EGFR wild type = target: T1, EGFR wild type (Homo sapiens, UniProt P00533); assay: Inhibition of EGFR wild type biochemical enzymatic activity (HTRF); conditions: EGFR WT, 1 mM ATP, 1 h, room temperature, read-out: IC50 (nM) @WT
# T1 construct: purchased Carna Bio
# Method in brief: (§1)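 Compounds at varying concentrations were tested against each EGFR form using 1 mM ATP and 1 μM TK Substrate-biotin. Reactions ran 1 h at room temperature in Mg2+/Mn2+ buffer with CHAPS, DTT and 0.5% DMSO. Time-resolved fluorescence gave IC50 by four-parameter fit.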
# EGFR[T790M/C797S/L858R] = target: T2, EGFR[T790M/C797S/L858R] (Homo sapiens, UniProt P00533, C797S/L858R/T790M); assay: Inhibition of EGFR[T790M/C797S/L858R] biochemical enzymatic activity (HTRF); conditions: EGFR T790M-C797S-L858R, 1 mM ATP, 1 h, room temperature, read-out: IC50 (nM) @T790M- C797S - L858R
# T2 construct: purchased Carna Bio
# Method in brief: as §1
# EGFR (d746-750 C797S) = target: T3, EGFR (d746-750 C797S) (Homo sapiens, UniProt P00533, C797S/DEL746-750); assay: Inhibition of EGFR (d746-750 C797S) biochemical enzymatic activity (HTRF); conditions: EGFR Del19-C797S, 1 mM ATP, 1 h, room temperature, read-out: IC50 (nM) @Del19-C797S
# T3 construct: purchased signalchem
# Method in brief: as §1
# A-431 = assay: Cell proliferation GI50, A-431 cells (Table 6); format: cell-based
# PC-9 = assay: Cell proliferation assay, PC-9 cells (CellTiter-Glo, 72 hours); format: cell-based; conditions: PC9 cells, CellTiter-Glo, read-out: PC9 GI50
# Method in brief: (§2)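 Growth over 72 h was quantified by CellTiter-Glo luminescence, normalised as (G3 − G0)/(DMSO G3 − G0), for PC-9 cells seeded at 500/well and EGFR-mutant Ba/F3 cells at 5000/well in RPMI1640. Compound concentration series added after overnight incubation; GI50 obtained from best-fit curves.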
# [1] = target: T4, EGFR[T790M/C797S/d746-750] (Homo sapiens, UniProt P00533, C797S/DEL746-750/T790M); assay: Inhibition of EGFR[T790M/C797S/d746-750] biochemical enzymatic activity (HTRF); conditions: EGFR T790M-C797S-Del19, 1 mM ATP, 1 h, room temperature, read-out: IC50 (nM) @T790M - C797S - Del19
# T4 construct: purchased Carna Bio
# Method in brief: as §1
# EGFR Exon19Del/T790M = target: T5, EGFR Exon19Del/T790M (Homo sapiens, UniProt P00533, DEL746-750/T790M); assay: Inhibition of EGFR Exon19Del/T790M biochemical enzymatic activity (HTRF); conditions: EGFR Del19-T790M, 1 mM ATP, 1 h, room temperature, read-out: IC50 (nM) @Del19-T790M
# T5 construct: purchased Carna Bio
# Method in brief: as §1
# EGFR Exon19Del = target: T6, EGFR Exon19Del (Homo sapiens, UniProt P00533, DEL746-750); assay: Inhibition of EGFR Exon19Del biochemical enzymatic activity (HTRF); conditions: EGFR Del19, 1 mM ATP, 1 h, room temperature, read-out: IC50 @Del19
# T6 construct: purchased Carna Bio
# Method in brief: as §1
# EGFR (C797S L858R) = target: T7, EGFR (C797S L858R) (Homo sapiens, UniProt P00533, C797S/L858R); assay: Inhibition of EGFR (C797S L858R) biochemical enzymatic activity (HTRF); conditions: EGFR L858-C797S, 1 mM ATP, 1 h, room temperature, read-out: IC50 (nM) @L858-C797S
# T7 construct: purchased signalchem
# Method in brief: as §1
# EGFR L858R = target: T8, EGFR L858R (Homo sapiens, UniProt P00533, L858R); assay: Inhibition of EGFR L858R biochemical enzymatic activity (HTRF); conditions: 1 mM ATP, 1 h, room temperature, read-out: IC50 (nM) @L858R
# T8 construct: purchased Carna Bio
# Method in brief: as §1
# [2] = test system: Ba/F3 cells expressing EGFR mutations; assay: Cell proliferation assay, Ba/F3 cells expressing EGFR mutations (CellTiter-Glo, 72 hours); format: cell-based; conditions: CellTiter-Glo
# Method in brief: as §2
# EGFR L858R/T790M = target: T9, EGFR L858R/T790M (Homo sapiens, UniProt P00533, L858R/T790M); assay: Inhibition of EGFR L858R/T790M biochemical enzymatic activity (HTRF); conditions: EGFR L858R-T790M, 1 mM ATP, 1 h, room temperature, read-out: IC50 (nM) @L858R-T790M
# T9 construct: purchased Carna Bio
# Method in brief: as §1
# [3] = Homo sapiens, A-431, A-431 cells
# [4] = Mus musculus, BaF3, 72 h, BaF3 cells, EGFR DEL19-C797S, read-out: DEL19-C797S/BaF3 GI50
# [5] = Mus musculus, BaF3, 72 h, BaF3 cells, EGFR DEL19-T790-C797S, read-out: DEL19-T790-C797S/BaF3 GI50
# [6] = Mus musculus, BaF3, 72 h, BaF3 cells, EGFR L858R, read-out: L858R/BaF3 GI50
# [7] = Mus musculus, BaF3, 72 h, BaF3 cells, EGFR L858R-C797S, read-out: L858R-C797S/BaF3 GI50
# [8] = Mus musculus, BaF3, 72 h, BaF3 cells, EGFR L858R-T790-C797S, read-out: L858R-T790-C797S/BaF3 GI50
# [9] = Mus musculus, BaF3, 72 h, BaF3 cells, EGFR L858R-T790M, read-out: L858R-T790M/BaF3 GI50
# [10] = Mus musculus, BaF3, 72 h, EGFR DEL19-T790M, read-out: DEL19-T790M GI50
# [11] = BaF3 cells, EGFR DEL19-C797S, read-out: DEL19-C797S/BaF3 GI50
# [12] = BaF3 cells, EGFR DEL19-T790-C797S, read-out: DEL19-T790-C797S/BaF3 GI50
# [13] = BaF3 cells, EGFR L858R, read-out: L858R/BaF3 GI50
# [14] = BaF3 cells, EGFR L858R-C797S, read-out: L858R-C797S/BaF3 GI50
# [15] = BaF3 cells, EGFR L858R-T790-C797S, read-out: L858R-T790-C797S/BaF3 GI50
# [16] = BaF3 cells, EGFR L858R-T790M, read-out: L858R-T790M/BaF3 GI50
# [17] = EGFR DEL19-T790M, read-out: DEL19-T790M GI50
# T6 sequence (P00533 with tags, fused parts or gaps DEL746-750 limits assumed): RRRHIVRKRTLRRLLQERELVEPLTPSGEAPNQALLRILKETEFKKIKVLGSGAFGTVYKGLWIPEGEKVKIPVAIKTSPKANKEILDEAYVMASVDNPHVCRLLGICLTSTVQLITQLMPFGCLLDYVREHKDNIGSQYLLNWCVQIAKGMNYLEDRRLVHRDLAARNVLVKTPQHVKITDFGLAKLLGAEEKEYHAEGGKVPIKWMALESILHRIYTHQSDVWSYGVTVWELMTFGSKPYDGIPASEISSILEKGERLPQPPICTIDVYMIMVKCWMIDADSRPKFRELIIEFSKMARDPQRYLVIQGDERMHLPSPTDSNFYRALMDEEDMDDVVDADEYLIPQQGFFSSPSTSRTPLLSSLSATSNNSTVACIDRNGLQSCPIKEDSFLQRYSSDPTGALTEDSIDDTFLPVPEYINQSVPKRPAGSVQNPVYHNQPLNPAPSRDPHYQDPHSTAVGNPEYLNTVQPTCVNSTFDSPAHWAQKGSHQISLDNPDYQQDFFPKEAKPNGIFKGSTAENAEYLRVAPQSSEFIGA
# T8 sequence (P00533 25-1210 L858R): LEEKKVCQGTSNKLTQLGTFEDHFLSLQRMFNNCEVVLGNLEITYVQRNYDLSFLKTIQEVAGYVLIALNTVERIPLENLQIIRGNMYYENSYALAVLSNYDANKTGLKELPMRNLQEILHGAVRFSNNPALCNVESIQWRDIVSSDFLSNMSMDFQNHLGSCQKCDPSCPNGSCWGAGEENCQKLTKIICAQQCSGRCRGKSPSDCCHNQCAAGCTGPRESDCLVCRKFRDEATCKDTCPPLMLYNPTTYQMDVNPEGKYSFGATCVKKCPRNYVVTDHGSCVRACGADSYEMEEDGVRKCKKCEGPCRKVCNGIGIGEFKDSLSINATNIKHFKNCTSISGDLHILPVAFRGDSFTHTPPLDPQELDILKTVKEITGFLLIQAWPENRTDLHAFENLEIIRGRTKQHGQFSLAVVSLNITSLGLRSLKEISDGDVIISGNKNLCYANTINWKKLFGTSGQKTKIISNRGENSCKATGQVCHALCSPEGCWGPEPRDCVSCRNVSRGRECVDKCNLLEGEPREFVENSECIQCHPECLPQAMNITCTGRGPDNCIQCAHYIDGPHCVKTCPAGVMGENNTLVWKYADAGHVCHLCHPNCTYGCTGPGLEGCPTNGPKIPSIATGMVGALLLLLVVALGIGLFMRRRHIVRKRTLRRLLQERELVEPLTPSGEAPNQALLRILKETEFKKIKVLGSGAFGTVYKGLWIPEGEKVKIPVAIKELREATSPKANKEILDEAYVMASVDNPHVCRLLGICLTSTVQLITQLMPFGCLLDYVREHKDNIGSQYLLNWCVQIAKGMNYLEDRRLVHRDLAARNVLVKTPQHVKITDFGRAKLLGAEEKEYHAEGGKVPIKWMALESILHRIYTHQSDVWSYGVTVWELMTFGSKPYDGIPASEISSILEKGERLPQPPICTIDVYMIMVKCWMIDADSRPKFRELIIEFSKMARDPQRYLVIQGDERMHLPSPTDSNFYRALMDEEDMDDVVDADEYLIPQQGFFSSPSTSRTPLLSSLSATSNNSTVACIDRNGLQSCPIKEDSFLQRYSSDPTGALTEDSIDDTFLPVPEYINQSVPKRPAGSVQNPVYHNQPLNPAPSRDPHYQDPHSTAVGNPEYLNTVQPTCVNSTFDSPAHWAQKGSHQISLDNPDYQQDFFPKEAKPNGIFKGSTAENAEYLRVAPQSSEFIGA
# T2 sequence (P00533 25-1210 T790M/C797S/L858R): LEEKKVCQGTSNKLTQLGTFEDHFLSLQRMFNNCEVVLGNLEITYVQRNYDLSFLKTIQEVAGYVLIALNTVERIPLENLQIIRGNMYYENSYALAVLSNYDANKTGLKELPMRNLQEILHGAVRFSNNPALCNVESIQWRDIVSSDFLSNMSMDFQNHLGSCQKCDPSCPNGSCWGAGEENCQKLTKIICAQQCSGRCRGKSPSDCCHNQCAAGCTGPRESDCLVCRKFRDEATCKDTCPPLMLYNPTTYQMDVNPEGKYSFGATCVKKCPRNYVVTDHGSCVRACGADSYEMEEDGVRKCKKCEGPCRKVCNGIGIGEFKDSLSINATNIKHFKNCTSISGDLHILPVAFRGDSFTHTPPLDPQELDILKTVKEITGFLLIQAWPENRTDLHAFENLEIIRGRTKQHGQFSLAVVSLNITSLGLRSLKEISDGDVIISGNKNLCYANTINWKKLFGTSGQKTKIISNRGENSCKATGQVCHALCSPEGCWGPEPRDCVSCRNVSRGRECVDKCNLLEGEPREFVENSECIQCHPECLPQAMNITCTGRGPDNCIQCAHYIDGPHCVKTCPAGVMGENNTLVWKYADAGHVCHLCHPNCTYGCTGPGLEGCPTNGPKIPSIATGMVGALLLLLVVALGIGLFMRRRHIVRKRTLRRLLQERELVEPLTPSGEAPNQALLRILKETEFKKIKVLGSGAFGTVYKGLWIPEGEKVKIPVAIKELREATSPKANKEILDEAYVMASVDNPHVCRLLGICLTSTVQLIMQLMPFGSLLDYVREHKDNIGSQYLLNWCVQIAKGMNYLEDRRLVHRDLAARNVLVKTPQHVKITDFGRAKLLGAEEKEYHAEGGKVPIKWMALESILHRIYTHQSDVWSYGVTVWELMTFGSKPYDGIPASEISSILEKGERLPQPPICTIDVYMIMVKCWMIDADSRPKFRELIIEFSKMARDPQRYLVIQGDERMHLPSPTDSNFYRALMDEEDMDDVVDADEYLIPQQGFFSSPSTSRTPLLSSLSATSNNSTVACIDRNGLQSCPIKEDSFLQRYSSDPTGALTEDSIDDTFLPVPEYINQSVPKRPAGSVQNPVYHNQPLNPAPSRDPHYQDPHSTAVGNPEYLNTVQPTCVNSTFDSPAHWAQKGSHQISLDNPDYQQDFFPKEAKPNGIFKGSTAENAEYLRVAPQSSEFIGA
# T1 sequence (P00533 25-1210): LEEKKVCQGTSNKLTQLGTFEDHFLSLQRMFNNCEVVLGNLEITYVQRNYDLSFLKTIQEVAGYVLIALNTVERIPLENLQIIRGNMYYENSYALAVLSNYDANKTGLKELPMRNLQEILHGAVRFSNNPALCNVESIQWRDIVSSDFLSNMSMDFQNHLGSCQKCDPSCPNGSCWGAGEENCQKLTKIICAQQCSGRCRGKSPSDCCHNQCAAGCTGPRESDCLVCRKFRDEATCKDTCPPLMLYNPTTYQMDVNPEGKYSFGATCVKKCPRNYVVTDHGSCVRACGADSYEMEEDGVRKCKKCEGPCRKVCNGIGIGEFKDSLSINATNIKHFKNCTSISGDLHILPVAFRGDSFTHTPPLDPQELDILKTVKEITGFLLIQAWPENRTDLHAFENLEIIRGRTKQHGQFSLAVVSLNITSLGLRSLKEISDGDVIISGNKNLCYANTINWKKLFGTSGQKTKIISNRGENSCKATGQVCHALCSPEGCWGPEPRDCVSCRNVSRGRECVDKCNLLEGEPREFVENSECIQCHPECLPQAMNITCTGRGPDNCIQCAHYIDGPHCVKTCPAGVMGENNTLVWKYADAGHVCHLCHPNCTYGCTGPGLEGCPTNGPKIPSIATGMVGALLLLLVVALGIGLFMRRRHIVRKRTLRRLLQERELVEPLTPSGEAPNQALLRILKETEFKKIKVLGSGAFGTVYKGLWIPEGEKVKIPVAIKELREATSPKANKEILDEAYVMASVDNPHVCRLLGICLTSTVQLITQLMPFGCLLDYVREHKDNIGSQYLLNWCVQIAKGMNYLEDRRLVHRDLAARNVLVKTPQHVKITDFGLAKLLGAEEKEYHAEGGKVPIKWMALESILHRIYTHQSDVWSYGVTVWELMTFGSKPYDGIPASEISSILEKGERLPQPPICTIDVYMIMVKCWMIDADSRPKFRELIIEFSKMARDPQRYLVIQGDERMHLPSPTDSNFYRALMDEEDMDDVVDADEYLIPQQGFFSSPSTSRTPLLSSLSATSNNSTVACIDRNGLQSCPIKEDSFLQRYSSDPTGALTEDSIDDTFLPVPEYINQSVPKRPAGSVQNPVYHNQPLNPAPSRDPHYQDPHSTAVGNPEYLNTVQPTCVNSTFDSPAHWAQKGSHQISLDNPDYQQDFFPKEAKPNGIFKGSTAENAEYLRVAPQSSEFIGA
# T4 sequence (P00533 with tags, fused parts or gaps DEL746-750/T790M/C797S limits assumed): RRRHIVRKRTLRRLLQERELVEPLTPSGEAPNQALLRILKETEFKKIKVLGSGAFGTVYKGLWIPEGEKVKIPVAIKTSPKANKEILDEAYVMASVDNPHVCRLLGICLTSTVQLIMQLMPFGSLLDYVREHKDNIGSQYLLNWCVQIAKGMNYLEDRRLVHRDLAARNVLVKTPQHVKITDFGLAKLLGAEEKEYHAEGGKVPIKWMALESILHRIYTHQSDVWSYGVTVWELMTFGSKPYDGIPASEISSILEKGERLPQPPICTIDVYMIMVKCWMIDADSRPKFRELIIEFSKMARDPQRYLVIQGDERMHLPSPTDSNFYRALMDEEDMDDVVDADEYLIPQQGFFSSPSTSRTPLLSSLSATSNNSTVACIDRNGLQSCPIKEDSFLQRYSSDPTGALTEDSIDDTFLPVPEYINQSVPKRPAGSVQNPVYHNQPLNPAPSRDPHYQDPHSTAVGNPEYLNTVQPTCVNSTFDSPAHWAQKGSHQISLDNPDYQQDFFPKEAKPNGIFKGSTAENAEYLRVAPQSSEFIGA
smiles,measurement,setting,value
C[C@@H]1CCCOc2c(cnn2C)-c2cc(cn(C)c2=O)C(=O)Nc2nc3ccc(N4CC(N5CCN(C)CC5)C4)cc3n2C1 [Example A46],IC50,EGFR wild type,104 nM
same,IC50,EGFR[T790M/C797S/L858R],5.7 nM
same,IC50,EGFR (d746-750 C797S),2.2 nM
same,GI50,A-431; [3],221 nM
same,GI50,"PC-9; Homo sapiens, PC-9, 72 h",5.4 nM
same,IC50,[1],3.9 nM
same,IC50,EGFR Exon19Del/T790M,4.1 nM
same,pIC50,EGFR Exon19Del,8.59
same,IC50,EGFR (C797S L858R),8.5 nM
same,IC50,EGFR L858R,14 nM
same,GI50,[2]; [4],1.2 nM
same,GI50,[2]; [5],6.8 nM
same,GI50,[2]; [6],3.1 nM
same,GI50,[2]; [7],2.4 nM
same,GI50,[2]; [8],2 nM
same,GI50,[2]; [9],12 nM
same,GI50,[2]; [10],8.1 nM
same,IC50,EGFR L858R/T790M,8.5 nM
"CN1CCC2(CC1)CCN(c1ccc3nc4n(c3c1)C13CCC(CN(CCOc5c(cnn5C)-c5cc(cn(C)c5=O)C(=O)N4)C1)C3)C2 (single isomer, unassigned) [Example A88A]",IC50,EGFR wild type,> 5000 nM
same,IC50,EGFR[T790M/C797S/L858R],> 5000 nM
same,IC50,EGFR (d746-750 C797S),1160 nM
same,GI50,A-431; A-431 cells,6260 nM
same,GI50,PC-9,611 nM
same,IC50,[1],> 5000 nM
same,IC50,EGFR Exon19Del/T790M,> 5000 nM
same,pIC50,EGFR Exon19Del,6.32
same,IC50,EGFR (C797S L858R),> 5000 nM
same,IC50,EGFR L858R,> 5000 nM
same,GI50,[2]; [11],57 nM
same,GI50,[2]; [12],159 nM
same,GI50,[2]; [13],119 nM
same,GI50,[2]; [14],100 nM
same,GI50,[2]; [15],252 nM
same,GI50,[2]; [16],361 nM
same,GI50,[2]; [17],163 nM
same,IC50,EGFR L858R/T790M,> 5000 nM
"C[C@@H]1CCCOc2c(cnn2C)-c2cc(cn(C)c2=O)C(=O)Nc2nc3ccc(N4CCOCC4)cc3n2C1 [Example A26, (11R) 5,11,26-trimethyl-16-(morpholin-4-yl)-7-oxa-4,5,13,20,22,26-hexaazapentacyclo[22.3.1.0^{2,6}.0^{13,21}.0^{14,19}]octacosa-1(28),2(6),3,14,16,18,20,24-octaene-23,27-dione]",IC50,EGFR wild type,1090 nM
same,IC50,EGFR[T790M/C797S/L858R],16 nM
same,IC50,EGFR (d746-750 C797S),2.9 nM
same,GI50,A-431; [3],405 nM
same,GI50,"PC-9; Homo sapiens, PC-9, 72 h",18 nM
same,IC50,[1],5.6 nM
same,IC50,EGFR Exon19Del/T790M,5 nM
same,pIC50,EGFR Exon19Del,8.10
same,IC50,EGFR (C797S L858R),33 nM
same,IC50,EGFR L858R,68 nM
same,GI50,[2]; [4],2.1 nM
same,GI50,[2]; [5],16 nM
same,GI50,[2]; [6],18 nM
same,GI50,[2]; [7],4.6 nM
same,GI50,[2]; [8],12 nM
same,GI50,[2]; [9],28 nM
same,GI50,[2]; [10],18 nM
same,IC50,EGFR L858R/T790M,19 nM
"CN1CCC12CCN(c1ccc3nc4n(c3c1)C13CCC(CN(CCOc5c(cnn5C)-c5cc(cn(C)c5=O)C(=O)N4)C1)C3)CC2 (single isomer, unassigned) [Example A67A]",IC50,EGFR wild type,> 5000 nM
same,IC50,EGFR[T790M/C797S/L858R],> 5000 nM
same,IC50,EGFR (d746-750 C797S),1080 nM
same,GI50,A-431; A-431 cells,6350 nM
same,GI50,PC-9,307 nM
same,IC50,[1],1640 nM
same,IC50,EGFR Exon19Del/T790M,4070 nM
same,pIC50,EGFR Exon19Del,5.99
same,IC50,EGFR (C797S L858R),> 5000 nM
same,IC50,EGFR L858R,> 5000 nM
same,GI50,[2]; [11],133 nM
same,GI50,[2]; [12],374 nM
same,GI50,[2]; [13],530 nM
same,GI50,[2]; [14],382 nM
same,GI50,[2]; [15],258 nM
same,GI50,[2]; [16],1040 nM
same,GI50,[2]; [17],463 nM
same,IC50,EGFR L858R/T790M,> 5000 nM
"CN1CCN(c2ccc3nc4n(c3c2)C23CCC(CN(CCOc5c(cnn5C)-c5cc(cn(C)c5=O)C(=O)N4)C2)C3)CC1 (single isomer, unassigned) [Example A63B]",IC50,EGFR wild type,8 nM
same,IC50,EGFR[T790M/C797S/L858R],0.96 nM
same,IC50,EGFR (d746-750 C797S),0.51 nM
same,GI50,A-431; A-431 cells,620 nM
same,GI50,PC-9,5 nM
same,IC50,[1],1.1 nM
same,IC50,EGFR Exon19Del/T790M,0.94 nM
same,pIC50,EGFR Exon19Del,9.07
same,IC50,EGFR (C797S L858R),1.1 nM
same,IC50,EGFR L858R,1.6 nM
same,GI50,[2]; [11],0.67 nM
same,GI50,[2]; [12],1.4 nM
same,GI50,[2]; [13],1.1 nM
same,GI50,[2]; [14],3.1 nM
same,GI50,[2]; [15],1.3 nM
same,GI50,[2]; [16],8.6 nM
same,GI50,[2]; [17],1.9 nM
same,IC50,EGFR L858R/T790M,0.92 nM
CC(C)N1CCN(c2ccc3nc4n(c3c2)C[C@H](C)CCCOc2c(cnn2C)-c2cc(cn(C)c2=O)C(=O)N4)CC1 [Example A50],IC50,EGFR wild type,124 nM
same,IC50,EGFR[T790M/C797S/L858R],4.8 nM
same,IC50,EGFR (d746-750 C797S),1.8 nM
same,GI50,A-431; [3],126 nM
same,GI50,"PC-9; Homo sapiens, PC-9, 72 h",6.3 nM
same,IC50,[1],4 nM
same,IC50,EGFR Exon19Del/T790M,3.8 nM
same,pIC50,EGFR Exon19Del,8.62
same,IC50,EGFR (C797S L858R),7.4 nM
same,IC50,EGFR L858R,15 nM
same,GI50,[2]; [4],1 nM
same,GI50,[2]; [5],5.3 nM
same,GI50,[2]; [6],2.7 nM
same,GI50,[2]; [7],2.4 nM
same,GI50,[2]; [8],1.9 nM
same,GI50,[2]; [9],9.5 nM
same,GI50,[2]; [10],7.5 nM
same,IC50,EGFR L858R/T790M,6.7 nM
